Reference: patent US6858741B2, “Alkyl-dihalogenated phenyl-substituted ketoenols useful as pesticides and herbicides” (Bayer Aktiengesellschaft, priority 1995, dated 2005)
Values belong to the molecule of their own block, whether it stands above or below them.

Assays:
[1] = tested on: resistant Boophilus microplus, SP resistant Parkhurst strain; assay: Test with resistant Boophilus microplus / SP resistant Parkhurst strain; type: in vivo; conditions: active compound concentration 20 μg/animal; injected into the abdomen
Description: [table] 20 mg of active compound are dissolved in 1 ml of dimethyl sulphoxide, and lesser concentrations are prepared by dilution with the same solvent. The test is carried out in 5 applications. 1 μl of the solutions is injected into the abdomen, and the animals are transferred into dishes and kept in a controlled-environment cabinet. The activity is determined via the inhibition of oviposition. 100% means that no tick has produced eggs.

fly larvae = assay: Test with fly larvae/development-inhibitory action; type: in vivo; conditions: active compound concentration 1000 ppm
Description: [table] To produce a suitable formulation, 3 parts by weight of active compound are mixed with 7 parts of the abovementioned solvent/emulsifier mixture, and the resulting emulsion concentrate is diluted with water to the concentration desired in each case. For each concentration, 30 to 50 larvae are transferred to horsemeat (1 cm^3) located in glass tubes and 500 μl of the test dilution are pipetted onto the meat. The glass tubes are placed into plastic beakers whose bottom is covered with sea sand and kept in a control-environment cabinet (26° C.±1.5° C., 70% relative humidity±10%). The activity is checked after 24 hours and 48 hours (larvicidal action). After the larvae have left the glass tubes (approximately 72 hours), the tubes are removed, and perforated plastic lids are placed on the beakers. After 1½ times the development period (hatching of the control flies), the hatched flies and the pupae/puparia are counted. The criterion for the action is death in the treated larvae after 48 hours (larvicidal effect) or inhibition of adults hatching from the pupae or inhibition of pupation. The criterion for the in-vitro action of a substance is the inhibition of fly development or a standstill of development prior to the adult stage. 100% larvicidal activity means that all larvae have died after 48 hours. 100% development-inhibitory activity means that no adult flies have hatched.

[2] = tested on: mustard beetle larvae (Phaedon cochleariae); assay: Phaedon larvae test; type: in vivo; conditions: after 7 days; active compound concentration 0.1%; dipped cabbage leaves
Description: (§1) [table] To produce a suitable preparation of active compound, 1 part by weight of active compound is mixed with the stated amount of solvent and the stated amount of emulsifier, and the concentrate is diluted with water to the desired concentration. Cabbage leaves (Brassica oleracea) are treated by being dipped into the preparation of the active compound of the desired concentration and are infested with mustard beetle larvae (Phaedon cochleariae) while the leaves are still moist. After the specified period of time, the destruction in % is determined. 100% means that all the beetle larvae have been killed; 0% means that none of the beetle larvae have been killed.

[3] = tested on: green peach aphid (Myzus persicae); assay: Myzus test; type: in vivo; conditions: after 6 days; active compound concentration 0.1%; dipped cabbage leaves
Description: [table] To produce a suitable preparation of active compound, 1 part by weight of active compound is mixed with the stated amount of solvent and the stated amount of emulsifier, and the concentrate is diluted with water to the desired concentration. Cabbage leaves (Brassica oleracea) which are severely infested with the green peach aphid (Myzus persicae) are treated by being dipped into the preparation of active compound of the desired concentration. After the specified period of time, the destruction in % is determined. 100% means that all the aphids have been killed; 0% means that none of the aphids have been killed.

[4] = tested on: greenhouse red spider mite or two-spotted spider-mite (Tetranychus urticae); assay: Tetranychus test (OP-resistant/spray treatment); type: in vivo; conditions: after 7 days; active compound concentration 0.004%; spray treatment of bean plants
Description: (§2) [table] To produce a suitable preparation of active compound, 1 part by weight of active compound is mixed with the stated amount of solvent and the stated amount of emulsifier, and the concentrate is diluted with water to the desired concentrations. Bean plants (Phaseolus vulgaris) which are severely infested with all development stages of the greenhouse red spider mite or two-spotted spider-mite (Tetranychus urticae) are sprayed with a preparation of active compound of the desired concentration. After the specified period of time, the destruction in % is determined. 100% means that all the spider mites have been killed; 0% means that none of the spider mites have been killed.

[5] = tested on: greenhouse red spider mite or two-spotted spider-mite (Tetranychus urticae); assay: Tetranychus test (OP-resistant/immersion treatment); type: in vivo; conditions: after 13 days; active compound concentration 0.1%; immersion treatment of bean plants
Description: as §2, with “immersed in” for “sprayed with”

test plants [6] = assay: Pre-emergence test/greenhouse; type: in vivo; conditions: greenhouse, 250 g/ha, rated after three weeks vs untreated control, 0%=no action, 100%=total destruction
Description: [table] To produce a suitable preparation of active compound, 1 part by weight of active compound is mixed with the stated amount of solvent, the stated amount of emulsifier is added and the concentrate is diluted with water to the desired concentration. Seeds of the test plants are sown in normal soil and, after 24 hours, watered with the preparation of the active compound. It is expedient to keep constant the amount of water per unit area The concentration of the active compound in the preparation is of no importance, only the amount of active compound applied per unit area being decisive. After three weeks, the degree of damage to the plants is rated in % damage in comparison to the development of the untreated control. The figures denote: • 0%=no action (like untreated control) 100%=total destruction [table]

[7] = tested on: caterpillars of the fall armyworm (Spodoptera frugiperda); assay: Spodoptera test; type: in vivo; conditions: after 7 days; active compound concentration 0.1%; dipped cabbage leaves
Description: as §1, with “preparation of active compound” for “preparation of the active compound”, “infested with caterpillars of the fall armyworm (Spodoptera frugiperda) while the” for “infested with mustard beetle larvae (Phaedon cochleariae) while the”, “all the caterpillars have been” for “all the beetle larvae have been”, “of the caterpillars have been” for “of the beetle larvae have been”

[8] = tested on: caterpillars of the diamond-back moth (Plutella maculipennis); assay: Plutella test; type: in vivo; conditions: after 7 days; active compound concentration 0.1%; dipped cabbage leaves
Description: as §1, with “preparation of active compound” for “preparation of the active compound”, “infested with caterpillars of the diamond-back moth (Plutella maculipennis) while the” for “infested with mustard beetle larvae (Phaedon cochleariae) while the”, “all the caterpillars have been” for “all the beetle larvae have been”, “of the caterpillars have been” for “of the beetle larvae have been”

[9] = tested on: green rice leafhopper (Nephotettix cincticeps); assay: Nephotettix test; type: in vivo; conditions: after 6 days; active compound concentration 0.1%; dipped rice seedlings
Description: [table] To produce a suitable preparation of active compound, 1 part by weight of active compound is mixed with the stated amount of solvent and the stated amount of emulsifier, and the concentrate is diluted with water to the desired concentration. Rice seedlings (Oryza sativa) are treated by being dipped into the preparation of active compound of the desired concentration and are infested with the green rice leafhopper (Nephotettix cincticeps) while the seedlings are still moist. After the specified period of time, the destruction in % is determined. 100% means that all the leafhoppers have been killed; 0% means that none of the leafhoppers have been killed.

test plants [10] = assay: Post-emergence test; type: in vivo; conditions: post-emergence (footnote *); 250 g/ha; rated after three weeks vs untreated control; 0%=no action, 100%=total destruction

SMILES: Cc1cc(Cl)cc(Cl)c1C1=C(OC(=O)C(C)C)C2(CCCC(C)C2)NC1=O (single isomer, unassigned) [Example I-1-b-3]
activity (inhibition of oviposition) [1]: 100% | activity (larvicidal / development-inhibitory) (fly larvae): 100%

SMILES: Cc1cc(Cl)c(C2=C(O)C3(CCC(C)CC3)OC2=O)c(Cl)c1 (stereo not shown) [Example I-2-a-6]
destruction [2]: 100% | destruction [3]: 100% | activity (inhibition of oviposition) [1]: 100% | activity (larvicidal / development-inhibitory) (fly larvae): 100%

melting point: 137 °C
SMILES: Cc1cc(Cl)cc(Cl)c1C1=C(OC(=O)C(C)(C)C)C2(CCCCC2)OC1=O [Example I-2-b-1, 4-pivaloyl-oxy-3-(2,4-dichloro-6-methyl-phenyl)-5-spiro-cyclohexyl-tetronic acid]
activity (destruction) [4]: 100%

SMILES: CC(=O)OC1=C(c2c(C)cc(Cl)cc2Cl)C(=O)NC12CCCCC2 [Example I-1-b-7]
destruction [2]: 100% | destruction [3]: 100% | activity (destruction) [5]: 100% | degree of damage, Alopecurus myosuroides (test plants [6]): 95% | degree of damage, Avena fatua (test plants [6]): 80% | degree of damage, Beta vulgaris (test plants [6]): 30% | degree of damage, Setaria viridis (test plants [6]): 100% | degree of damage, Sinapis arvensis (test plants [6]): 100%

SMILES: Cc1cc(Cl)cc(Cl)c1C1=C(OC(=O)c2ccccc2)C2(CCCC(C)C2)NC1=O (single isomer, unassigned) [Example I-1-b-5]
destruction [7]: 100%

melting point: > 240 °C
SMILES: Cc1cc(Cl)cc(Cl)c1C1=C(O)C2(CCCCC2)OC1=O [Example I-2-a-1, 3-(2,4-dichloro-6-methyl-phenyl)-5-spirocyclohexyltetronic acid]

SMILES: Cc1cc(Cl)c(C2=C(O)C3(CCCCC3)OC2=O)c(Cl)c1 [Example I-2-a-5]
destruction [3]: 100%

SMILES: Cc1cc(Cl)cc(Cl)c1C1=C(O)C(C)(C(C)C)NC1=O (stereo not shown) [Example I-1-a-1]
destruction [8]: 100% | destruction [9]: 100% | destruction [3]: 100%

SMILES: Cc1cc(Cl)cc(Cl)c1-c1c(O)c(C)c(-c2ccccn2)oc1=O [Example I-5-a-1]
degree of damage, Alopecurus myosuroides (test plants [6]): 80% | degree of damage, Beta vulgaris (test plants [6]): 0% | degree of damage, Alopecurus myosuroides (test plants [10]): 80% | degree of damage, Beta vulgaris (test plants [10]): 0%

SMILES: Cc1cc(Cl)cc(Cl)c1C1=C(O)C2(CCOCC2)NC1=O [Example I-1-a-5]
activity (inhibition of oviposition) [1]: 100% | activity (larvicidal / development-inhibitory) (fly larvae): 100%
